Where “and” joins values, the source holds several entries; their conditions need not be identical. Equal values may be shown once. Toxic doses and inconclusive results are not listed. Cut-off read from the data, not from the text of the source: active = T/C of 150% or more; inactive = T/C below 125%. Peptide text beside a SMILES is read from it. * marks the point of attachment. Cbz = O=C(OCc1ccccc1)*
Tested on: L1210 leukemia ip in BDF1 mice, survival T/C
Experiment: NCI In Vivo Anticancer Drug Screen. Data for tumor model L1210 Leukemia (intraperitoneal) in B6D2F1 (BDF1) mice
Conditions: endpoint: mean survival time, higher = longer survival
How it was run: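 Survival endpoint. Drug-treated group vs vehicle group, expressed as T divided by C. Tumor passaged by transplantation.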

[1] = dose: 25.0 mg/kg/injection, schedule: Q04DX003 (ip), vehicle: Klucel (hydroxypropylcellulose) (HPC)
[2] = dose: 50.0 mg/kg/injection, schedule: Q04DX003 (ip), vehicle: Klucel (hydroxypropylcellulose) (HPC)
[3] = dose: 100.0 mg/kg/injection, schedule: Q04DX003 (ip), vehicle: Klucel (hydroxypropylcellulose) (HPC)
[4] = dose: 200.0 mg/kg/injection, schedule: Q04DX003 (ip), vehicle: Klucel (hydroxypropylcellulose) (HPC)
[5] = dose: 400.0 mg/kg/injection, schedule: Q04DX003 (ip), vehicle: Klucel (hydroxypropylcellulose) (HPC)
[6] = dose: 100.0 mg/kg/injection, schedule: Q01DX001 (ip), vehicle: saline
[7] = dose: 200.0 mg/kg/injection, schedule: Q01DX001 (ip), vehicle: saline
[8] = dose: 400.0 mg/kg/injection, schedule: Q01DX001 (ip), vehicle: saline
[9] = dose: 100.0 mg/kg/injection, schedule: Q01DX009 (ip), vehicle: Klucel (hydroxypropylcellulose) (HPC)
[10] = dose: 200.0 mg/kg/injection, schedule: Q01DX009 (ip), vehicle: Klucel (hydroxypropylcellulose) (HPC)
[11] = dose: 400.0 mg/kg/injection, schedule: Q01DX009 (ip), vehicle: Klucel (hydroxypropylcellulose) (HPC)
[12] = dose: 100.0 mg/kg/injection, schedule: Q01DX001 (ip), vehicle: Klucel (hydroxypropylcellulose) (HPC)
[13] = dose: 200.0 mg/kg/injection, schedule: Q01DX001 (ip), vehicle: Klucel (hydroxypropylcellulose) (HPC)
[14] = dose: 400.0 mg/kg/injection, schedule: Q01DX001 (ip), vehicle: Klucel (hydroxypropylcellulose) (HPC)
[15] = dose: 100.0 mg/kg/injection, schedule: Q04DX003 (ip), vehicle: saline with Tween-80
[16] = dose: 200.0 mg/kg/injection, schedule: Q04DX003 (ip), vehicle: saline with Tween-80
[17] = dose: 400.0 mg/kg/injection, schedule: Q04DX003 (ip), vehicle: saline with Tween-80

Measured: T/C

CCC(CC)(COC(N)=O)COC(N)=O
inactive: [1] 98 % of control | [2] 93 % of control | [3] 98 % of control | [4] 95 % of control | [5] 93 % of control

Clc1ccc(C2OCCO2)c(Cl)c1
inactive: [6] 97 % of control | [7] 92 % of control | [8] 87 % of control

C/C=C1/C(=O)O[C@]23C=C[C@@H]4C(C(=O)OC)=CO[C@H](O[C@@H]12)[C@@H]43
inactive: [6] 104 % of control | [7] 103 % of control | [8] 98 % of control

Nc1c(Br)cc(O)c2c1C(=O)c1ccccc1C2=O
inactive: [9] 88 % of control | [3] 100 % of control | [10] 90 % of control | [4] 100 % of control | [11] 90 % of control | [5] 96 % of control

NC(=O)Nc1cccc(C(=O)O)c1
inactive: [9] 89 % of control | [3] 92 % of control | [10] 87 % of control | [4] 92 % of control | [11] 87 % of control | [5] 96 % of control

COC1=C(O)C(C(O)CO)OC1=O (stereo not drawn)
inactive: dose: 25.0 mg/kg/injection, schedule: Q01DX009 (ip), vehicle: water 103 % of control | dose: 50.0 mg/kg/injection, schedule: Q01DX009 (ip), vehicle: water 110 % of control | dose: 100.0 mg/kg/injection, schedule: Q01DX009 (ip), vehicle: water 117 % of control | dose: 200.0 mg/kg/injection, schedule: Q01DX009 (ip), vehicle: water 101 % of control | dose: 400.0 mg/kg/injection, schedule: Q01DX009 (ip), vehicle: water 108 % of control

COc1ccccc1/C=N\NC(=O)C1CC1
inactive: dose: 15.0 mg/kg/injection, schedule: Q01DX Z (ip), vehicle: carboxymethylcellulose (CMC) 102 % of control | dose: 30.0 mg/kg/injection, schedule: Q01DX Z (ip), vehicle: carboxymethylcellulose (CMC) 97 % of control | dose: 60.0 mg/kg/injection, schedule: Q01DX Z (ip), vehicle: carboxymethylcellulose (CMC) 97 % of control and 101 % of control | dose: 120.0 mg/kg/injection, schedule: Q01DX Z (ip), vehicle: carboxymethylcellulose (CMC) 101 % of control and 102 % of control | dose: 240.0 mg/kg/injection, schedule: Q01DX Z (ip), vehicle: carboxymethylcellulose (CMC) 98 % of control | dose: 480.0 mg/kg/injection, schedule: Q01DX Z (ip), vehicle: carboxymethylcellulose (CMC) 101 % of control | dose: 480.0 mg/kg/injection, schedule: Q01DX Z (oral), vehicle: carboxymethylcellulose (CMC) 106 % of control | dose: 960.0 mg/kg/injection, schedule: Q01DX Z (oral), vehicle: carboxymethylcellulose (CMC) 93 % of control

O=C(O)CCC(=O)CCC(=O)O
inactive: dose: 100.0 mg/kg/injection, schedule: Q01DX009 (ip), vehicle: other 95 % of control | dose: 200.0 mg/kg/injection, schedule: Q01DX009 (ip), vehicle: other 106 % of control | dose: 400.0 mg/kg/injection, schedule: Q01DX009 (ip), vehicle: other 106 % of control

CC(C)=CCC1=C(Cl)C(=O)c2ccccc2C1=O
inactive: [12] 96 % of control | [13] 104 % of control | [14] 101 % of control

c1ccc(C(CN2CCCCC2)c2ccccc2)cc1
inactive: dose: 44.0 mg/kg/injection, schedule: Q01DX Z (ip), vehicle: methylcellulose (MC) 93 % of control | dose: 66.0 mg/kg/injection, schedule: Q01DX Z (ip), vehicle: methylcellulose (MC) 96 % of control | dose: 100.0 mg/kg/injection, schedule: Q01DX Z (ip), vehicle: methylcellulose (MC) 105 % of control

COC(=O)C(NC(=O)C1CCCN1C(=O)OCc1ccccc1)C(C)C (stereo not drawn) (Cbz-Pro-Val-OMe; configuration not given here)
inactive: dose: 25.0 mg/kg/injection, schedule: Q04DX003 (ip), vehicle: saline with Tween-80 95 % of control | dose: 50.0 mg/kg/injection, schedule: Q04DX003 (ip), vehicle: saline with Tween-80 95 % of control | [15] 106 % of control | [16] 95 % of control | [17] 94 % of control

COC(=O)N1C2C=CC(=O)C(C=C2)N1C(=O)OC (stereo not drawn)
inactive: dose: 75.0 mg/kg/injection, schedule: Q01DX001 (ip), vehicle: saline 106 % of control | dose: 150.0 mg/kg/injection, schedule: Q01DX001 (ip), vehicle: saline 106 % of control | dose: 300.0 mg/kg/injection, schedule: Q01DX001 (ip), vehicle: saline 109 % of control

O/N=C\c1ccnc2ccccc12
inactive: dose: 100.0 mg/kg/injection, schedule: Q01DX009 (ip), vehicle: carboxymethylcellulose (CMC) 93 % of control and 98 % of control | dose: 100.0 mg/kg/injection, schedule: Q04DX002 (ip), vehicle: carboxymethylcellulose (CMC) 100 % of control (2×) and 104 % of control | dose: 100.0 mg/kg/injection, schedule: Q04DX003 (ip), vehicle: carboxymethylcellulose (CMC) 97 % of control | dose: 200.0 mg/kg/injection, schedule: Q01DX009 (ip), vehicle: carboxymethylcellulose (CMC) 105 % of control and 90 % of control | dose: 200.0 mg/kg/injection, schedule: Q04DX002 (ip), vehicle: carboxymethylcellulose (CMC) 95 % of control and 100 % of control (2×) | dose: 200.0 mg/kg/injection, schedule: Q04DX003 (ip), vehicle: carboxymethylcellulose (CMC) 104 % of control | dose: 400.0 mg/kg/injection, schedule: Q01DX009 (ip), vehicle: carboxymethylcellulose (CMC) 98 % of control | dose: 400.0 mg/kg/injection, schedule: Q04DX002 (ip), vehicle: carboxymethylcellulose (CMC) 100 % of control and 104 % of control and 90 % of control | dose: 400.0 mg/kg/injection, schedule: Q04DX003 (ip), vehicle: carboxymethylcellulose (CMC) 98 % of control

COC(=O)C12c3ccccc3C(c3ccccc31)c1c(N=O)ccc(NO)c12
inactive: [1] 100 % of control | [2] 97 % of control | [12] 99 % of control | [3] 94 % of control | [13] 90 % of control | [4] 102 % of control | [14] 89 % of control | [5] 105 % of control

O=C1N(Cl)C(=O)C(c2ccc(Cl)cc2)(c2ccc(Cl)cc2)N1Cl
inactive: dose: 12.5 mg/kg/injection, schedule: Q01DX009 (ip), vehicle: saline with Tween-80 98 % of control | dose: 25.0 mg/kg/injection, schedule: Q01DX009 (ip), vehicle: Klucel (hydroxypropylcellulose) (HPC) 106 % of control | dose: 25.0 mg/kg/injection, schedule: Q01DX009 (ip), vehicle: saline with Tween-80 96 % of control | [1] 113 % of control | dose: 50.0 mg/kg/injection, schedule: Q01DX001 (ip), vehicle: carboxymethylcellulose (CMC) 101 % of control | dose: 50.0 mg/kg/injection, schedule: Q01DX009 (ip), vehicle: Klucel (hydroxypropylcellulose) (HPC) 106 % of control | dose: 50.0 mg/kg/injection, schedule: Q01DX009 (ip), vehicle: saline with Tween-80 102 % of control | [2] 106 % of control | dose: 100.0 mg/kg/injection, schedule: Q01DX001 (ip), vehicle: carboxymethylcellulose (CMC) 108 % of control | [9] 98 % of control | dose: 100.0 mg/kg/injection, schedule: Q01DX009 (ip), vehicle: saline sonified 122 % of control | dose: 100.0 mg/kg/injection, schedule: Q01DX009 (ip), vehicle: saline with Tween-80 106 % of control | [3] 108 % of control | dose: 200.0 mg/kg/injection, schedule: Q01DX001 (ip), vehicle: carboxymethylcellulose (CMC) 102 % of control | dose: 200.0 mg/kg/injection, schedule: Q01DX009 (ip), vehicle: saline sonified 93 % of control | dose: 200.0 mg/kg/injection, schedule: Q01DX009 (ip), vehicle: saline with Tween-80 106 % of control | dose: 400.0 mg/kg/injection, schedule: Q01DX001 (ip), vehicle: carboxymethylcellulose (CMC) 103 % of control

CCCCCCCCCCCC(C)(O)CC (stereo not drawn)
inactive: [15] 95 % of control | [16] 95 % of control | [17] 101 % of control

CC(=O)OCCN1CCC(n2ccc(=O)[nH]c2=O)C1=O (stereo not drawn)
inactive: dose: 100.0 mg/kg/injection, schedule: Q04DX003 (ip), vehicle: saline 104 % of control | dose: 200.0 mg/kg/injection, schedule: Q04DX003 (ip), vehicle: saline 104 % of control | dose: 400.0 mg/kg/injection, schedule: Q04DX003 (ip), vehicle: saline 106 % of control

Reference: PubChem BioAssay AID248 (DTP/NCI, 2004)
